Measurements: paper PMC3199744, “Preformulation and stability in biological fluids of the retrocyclin RC-101, a potential anti-HIV topical microbicide” (AIDS Research and Therapy, 2011)

Experiments:
[1] = Stability in fresh normal human vaginal fluid (HVF), detection by LC-MS/MS; conditions: for time RC-101 detected in HVF: LC-MS/MS; for detection of RC-101 by LC-MS/MS: nanoLC-SRM MS, qualitative
Procedure: Inclusion criteria included ages between 18 and 45 years and agreeing to be abstinent from sexual activity for 48 hours prior to fluid collection. […] After signing informed consent and confirming eligibility, subjects completed a questionnaire and were then instructed on the use of the Instead Softcup® (Instead Inc., La Jolla, CA). Instead Softcup® is a FDA approved device to hold menstrual fluid during the menstrual period in replacement of a tampon or pad. Subjects inserted the cup and waited for 30 min. After this time period, the physician removed the cup, and placed it into a 50 mL conical centrifuge tube. Vaginal fluid collected from healthy volunteer women was stored at 4°C until used, and it was used within 4 h after collection.
The polymeric film solution was prepared as previously described by adding Milli Q water, PVA, and hydroxypropyl methyl cellulose (HPMC). The solution was then heated at 95°C for 20 minutes for complete dissolution of the polymers. […] The plate was placed into a vacuum oven at 30 ± 2°C for 20 ± 4 h. All dried films were removed from the plates and stored at room temperature in PET/Aluminum foil pouches (Amcor Flexibles Healthcare Inc, Mundelein, IL) until further analysis. […] For analytical purposes, films were dissolved in 1 mL of Milli Q water before addition to HVF.
The HVF from the Instead Softcup® was removed by centrifugation of the conical tube for 10 min at 5,000 rpm. […] HVF was then removed from the cup and the pH of each HVF sample was measured with Fisher Alkacid pH filter strips (Fisher Scientific). All samples collected on a specific day were pooled to be used for the research studies. If the pH of the individual samples was higher than 5, the sample was not included in the pool but it was stored at -80°C for separate analysis. If the sample contained blood, it was immediately discarded. Samples were prepared as described in Table 1. […] Because of its high viscosity, HVF was measured by weight and not by volume. […] At each time point, the samples were centrifuged at 10,000 rpm for 10 min to separate the supernatant from the epithelial cells as described in the cell processing section. Both parts (supernatant and cells) were stored at -80 ± C until analyzed by LC-MS/MS. To evaluate the influence of freezing the fluid prior to the analysis, the last pool of HVF was divided into two samples: one used fresh (at the time of collection), and the other one stored at -80°C for a 3-month period. […] HVF samples collected with a high pH value indicative of BV were stored at -80°C as previously mentioned. After confirmation of BV on those fluid samples by Gram stain score, the fluid samples (HVF BV^+) were thawed, pooled, and processed as described in Table 1.
At each time point, the sample was removed from the incubation chamber and centrifuged for 10 min at 10,000 rpm, at 4 ± C to separate the supernatant from cell pellet. Supernatant (100 μL) was added to microcentrifuge filters Ultracel YM-10 Microcon MWCO 10,000 (Millipore Corporation, Bedford, MA), which were pre-washed with Milli Q water to eliminate any trace of propylene glycol from the filters. Samples were centrifuged twice for 15 min at 8,500 rpm, at 4 ± C. The filtrate was collected and frozen at -80 ± C until further analysis. A solution of 3 M urea was added to the cell pellet (1:1 w/w) obtained from the first centrifugation, to lyse the cells. This mixture was vortexed three times for 30 sec, and then centrifuged for 10 min at 10,000 rpm, at 4 ± C. The supernatant obtained from the cell lysate was then added to microcentrifuge filters Ultracel YM-10 Microcon MWCO 10,000 pre-washed with Milli Q water. Samples were centrifuged twice for 15 min at 8,500 rpm, at 4 ± C. The filtrate was collected and frozen at -80 ± C until analysis.

[2] = tested on: X4 and R5 strains of HIV-1; conditions: cited from earlier work
From the text: Defensins are cysteine-rich, cationic antimicrobial peptides expressed by the leucocytes and epithelial cells of mammals. […] Retrocyclins (θ-Defensin) are the evolutionary descendants of α-defensin genes. Retrocyclins are circular 18-residue, tetracyclic peptides with three cysteine disulfide bonds. RC-101 ([…]), a cationic retrocyclin analog synthesized by solid phase peptide synthesis, has shown activity against X4 and R5 strains of HIV-1 in vitro [4]. The mechanism occur ...

[3] = Stability of RC-101 in 3 M urea; assay type: physicochemical
Procedure: At each time point, the sample was removed from the incubation chamber and centrifuged for 10 min at 10,000 rpm, at 4 ± C to separate the supernatant from cell pellet. Supernatant (100 μL) was added to microcentrifuge filters Ultracel YM-10 Microcon MWCO 10,000 (Millipore Corporation, Bedford, MA), which were pre-washed with Milli Q water to eliminate any trace of propylene glycol from the filters. Samples were centrifuged twice for 15 min at 8,500 rpm, at 4 ± C. The filtrate was collected and frozen at -80 ± C until further analysis. A solution of 3 M urea was added to the cell pellet (1:1 w/w) obtained from the first centrifugation, to lyse the cells. This mixture was vortexed three times for 30 sec, and then centrifuged for 10 min at 10,000 rpm, at 4 ± C. The supernatant obtained from the cell lysate was then added to microcentrifuge filters Ultracel YM-10 Microcon MWCO 10,000 pre-washed with Milli Q water. Samples were centrifuged twice for 15 min at 8,500 rpm, at 4 ± C. The filtrate was collected and frozen at -80 ± C until analysis. […] Samples were thawed and added to PepCleanTM C-18 spin columns (Pierce Biotechnology Inc., Rockford, IL) for desalting, after column conditioning with acetonitrile:water (50:50) and equilibration with 0.1% trifluoroacetic acid. […]

[4] = Thermal degradation of RC-101 solution, HPLC; assay type: physicochemical; conditions: 500 μg/mL solution, HPLC-UV 215 nm
Procedure: For all pre-formulation studies described below, triplicate solutions of RC-101 (500 μg/mL) were prepared in either water or aqueous buffer solution. Thermal degradation studies were conducted at 25, 37, and 65°C for a minimum period of 1 week. The effect of pH on the stability of RC-101 was evaluated over the pH range from 3 to 12 using 10 mM phosphate buffer solutions, at low (50 mmol/kg) and high (500 mmol/kg) ionic strength. Oxidation of RC-101 was evaluated by exposing a solution of RC-101 to hydrogen peroxide (H2O2) at concentrations of 3.0, 0.08, and 0.002% (v/v). The high H2O2 concentration (3.0%) was selected as a forced degradation concentration. […] Protection against oxidation was investigated by the addition of antioxidants commonly used in pharmaceutical products. The antioxidants used in this study were: methionine (95.2 μg/mL or 250 μg/mL), cysteine (95.2 μg/mL), glutathione (90.9 μg/mL), vitamin E TPGS (90.9 μg/mL), ascorbic acid (1.0 mg/mL), sodium ascorbate (1.0 mg/mL), and EDTA (1.0 μg/mL).
RC-101 concentration after exposure to preformulation conditions was analyzed by HPLC as previously described [11]. Briefly, the HPLC system (Waters Corporation, Milford, MA) was equipped with an autoinjector model 717, a quaternary pump model 600, and an ultraviolet (UV) detector model 2487 set up at 215 nm. Separation of RC-101 from degradant products was achieved using a Phenomenex Jupiter 5 μC5 300 Å (4.6 × 250 mm) column (Phenomenex, Torrance, CA) protected by a Widepore C5 (4 × 3.0 mm) guard cartridge (Phenomenex). The gradient consisted of mobile phase A (0.1% TFA in water (v/v)), and mobile phase B (0.07% TFA in acetonitrile (v/v)) pumped at a flow rate of 1.0 mL/min. […]
HPLC data obtained from the preformulation studies were expressed as the average percentage of the peak area from time 0 ± standard deviation, n = 3. Results were analyzed by one-way analysis of variance (ANOVA) with multiple comparisons of individual time points by using post hoc Bonferroni correction to detect significant differences under different conditions. […]

[5] = Circular dichroism of RC-101 at different pH; assay type: physicochemical; conditions: 500 μg/mL in buffer, pH 7 and pH 12 versus pH 3, 0.1 cm cell
Procedure: Changes in the secondary structure of the protein were monitored by Circular dichroism (CD) on an AVIV Circular Dichroism spectrophotometer model 202 (AVIV Biomedical, Lakewood, NJ) equipped with a 0.1 cm path length quartz cell. RC-101 stability was also monitored by using a matrix-assisted laser desorption ionization-time of flight (MALDI-TOF) mass spectrometric (MS) on a Voyager DE-PRO mass spectrometer (Applied Biosystems, Foster City, CA). Potential for aggregation was evaluated by UV-spectroscopy using a NanoDrop ND-1000 spectrophotometer (NanoDrop Technologies Inc, Wilmington, DE).

## GICRCICGKGICRCICGR (bicyclic or more) [RC-101, cationic retrocyclin analog; circular 18-residue tetracyclic peptide with three cysteine disulfide bonds]
[1]; another (one) pool of normal HVF, 37°C
  time RC-101 detected in HVF: up to 72 h
[1]; fresh pooled normal HVF 100 mg + 100 μL (100 μg/mL), 1:1, 37°C, 0 h
  detection of RC-101 by LC-MS/MS: +
[1]; fresh pooled normal HVF 1:1, 37°C, 2 h
  detection of RC-101 by LC-MS/MS: +
[1]; fresh pooled normal HVF 1:1, 37°C, 6 h
  detection of RC-101 by LC-MS/MS: +
[1]; fresh pooled normal HVF 1:1, 37°C, 12 h
  detection of RC-101 by LC-MS/MS: +
[1]; fresh pooled normal HVF 1:1, 37°C, 24 h
  detection of RC-101 by LC-MS/MS: +
[1]; fresh pooled normal HVF 1:1, 37°C, 48 h
  detection of RC-101 by LC-MS/MS: +
[1]; fresh pooled normal HVF 1:1, 37°C, 72 h, only one pool analyzed
  detection of RC-101 by LC-MS/MS: +
[1]; normal HVF, fresh, undiluted, pooled, 1:1 with RC-101 100 μg/mL, 37°C, LC-MS/MS (SRM), not quantitative, overall of 3 pools
  time RC-101 detected after exposure to HVF: at least 48 h
[1]; two pools of normal HVF, 37°C
  time RC-101 detected in HVF: 48 h
[2]
  activity against X4 and R5 strains of HIV-1 in vitro: activity
[3]
  time stable in 3 M urea: at least 24 h
[4]; 25 °C, 13 days, % peak area of time 0, n = 3, p > 0.5
  change in amount of RC-101 on storage (HPLC): no statistically significance difference
[4]; 37 °C, 13 days, % peak area of time 0, n = 3, p > 0.5
  change in amount of RC-101 on storage (HPLC): no statistically significance difference
[4]; 65 °C, 168 h, compared with 25 °C, n = 3, p < 0.04
  change in amount of RC-101 on storage (HPLC): significant decrease
[5]
  CD spectrum: peak shift and loss of absorbance compared to pH 3: change in folding
